In patent US8778889B2, “Antimicrobial decapeptide oral hygiene treatment” (The United States of America as represented by the …, priority 2003, dated 2014):
Ends that are not written are not given here.

Tests used:
[1] = Procedure: The chewing gum formulations were prepared following a procedure described previously. The gum base was heated at a temperature between 50 and 60° C. for melting. When the gum base was of the proper fluid consistency, the KSL was added as a fine powder along with the other components. The temperature was kept constant while mixing the components with the gum base in a mortar. After mixing, the homogenous chewing gum mixture was extruded, cut into squares of approximate shape and size and hardened at room temperature overnight. The composition of the gum was as follows: 550 mg of gum base, 420 mg of sorbitol, 10 mg of mannitol, 10 mg of saccharin, and 10, 20 or 30 mg of KSL (total weight: approximately 1 g). In vitro release study of KSL from chewing gums was carried out using an in vitro chewing release apparatus consisting of two modules (AB FIA, Lund, Sweden) (FIG. 1). Each module consists of a thermostatted glass cell in which two vertically oriented pistons holding an upper and a lower chewing plate are mounted. The cells were filled with 40 ml of artificial saliva and the chewing gum was loaded onto the lower chewing surface. […] The released amount of KSL was determined by RP-HPLC.
MRSA WRAMC #12 = format: cell-based, Staphylococcus aureus
Text: (§1) As shown in the table below, many drug-resistant pathogens including multidrug-resistant Acinetobacter baumannii (clinical isolates) were susceptible to the bactericidal activity of the newly developed antimicrobial peptides. […] This is shown by their lower MIC and MBC against a number of antibiotic-resistant bacteria including methicillin-resistant Staphylococcus aureus, vancomycin-resistant Enterococci, and multidrug-resistant Acinetobacter baumannii. Many of these resistant strains are involved in nosocomial infections, which affect the immunocompromised and the elderly individuals with weakened defenses. The tests were done in a broth microdilution assay as described in our earlier publication (Concannon et al., 2003).

MRSA ATCC #43300 = format: cell-based, Staphylococcus aureus
Text: as §1

MRSA VVRAMC #10 = format: cell-based, Staphylococcus aureus
Text: as §1

MRSA ATCC #33591 = format: cell-based, Staphylococcus aureus
Text: as §1

MRSA VVRAMC #1 = format: cell-based, Staphylococcus aureus
Text: as §1

MRSA WRAMC #9 = format: cell-based, Staphylococcus aureus
Text: as §1

[2] = test system: biofilms grown on saliva-coated HA surfaces; assay: Live/Dead BacLight staining with confocal laser scanning microscopy of treated biofilms; format: cell-based, human salivary bacteria; conditions: 66 h-old biofilms; KSL 200 μg/ml, Bzl 0.001%, CHX 0.12%
Procedure: (A) Effect of KSL on intact versus disrupted 45 h biofilms formed on saliva-coated HA disks by salivary bacteria using the in vitro plaque assay. A Mann-Whitney test was used for comparison of log reductions in CFU between the experimental groups (KSL-treated intact or disrupted biofilms) with the control groups (dH2O-treated intact or disrupted biofilms). The single asterisk represents a statistically significant difference between KSL and dH2O-treated intact biofilms (p<0.05). Likewise, double asterisks represent a statistically significant difference between KSL and dH2O-treated disrupted biofilms (p<0.01). […] (B) Effect of benzalkonium chloride in promoting the bactericidal activity of KSL against 66 h-old intact oral biofilms formed on saliva-coated HA disks using the in vitro plaque system. A Kruskal-Wallis test was used to compare log reductions in CFU among various treatment groups including the control group (dH2O-treated). The single asterisk represents a statistically significant difference between the combined treatment of KSL and benzalkonium chloride (Bzl) and dH2O (p<0.001), KSL (p<0.01), or Bzl (p<0.01)-treated intact biofilms. Double asterisks represent a statistically significant difference between CHX and dH2O (p<0.001) or Bzl (P<0.05)-treated intact biofilms. […] No significant difference in viability counts was observed between CHX-treated versus the combined use of KSL and Bzl. For (A) and (B), the data represent the determinations of one of three separate experiments, each performed in quadruplicate. Bars represent standard deviations. (C) Confocal images of control and treated biofilms grown on saliva-coated HA surfaces. Live/Dead BacLight™ Viability kit (Molecular Probes, Eugene, Oreg.) was used to assess the viability of biofilm cells exposed to different treatments. […] An excitation wavelength of 488 nm was used and the fluorescence light emitted was collected by two separate emission filters, 500-530 nm (SYTO 9, live), and 650-710 nm (propidium iodide, dead). […]

[3] = Interaction (adsorption) with hydroxyapatite discs in artificial saliva; format: physicochemical; conditions: KSL 0.5 mg/ml, 8 untreated HA discs, 37° C.
Procedure: Affinity of KSL to tooth-like materials was assessed by allowing the KSL to interact with HA discs (Size: 0.38″ diameter×0.06-0.08″ thick) in artificial saliva at 37° C. To simulate the tooth surface, the HA discs were pretreated in filtered human saliva for 2 hours (4 HA discs/4 mL of human saliva). Whole human saliva was collected from three healthy male donors in the morning prior to breakfast. After collection, the saliva was immediately centrifuged at 12,000 rpm for 20 min and the supernatant was filter through a 0.45 μm membrane filter. The HA discs, after conditioning with human saliva, were rinsed with artificial saliva and added to 4 ml of KSL solutions (0.5 mg/ml in artificial saliva) at 37° C. As a control, untreated HA discs were directly added to KSL solutions at 37° C. The sample vials were mounted on a rotary wheel with vertical rotation at a speed of 18 cycles/min. Samples were removed at predetermined times, centrifuged and the supernatants were analyzed by RP-HPLC.

A. baumannii WRAMC #14 = format: cell-based, Acinetobacter baumannii
Text: as §1

## KKVVFKVKFK-NH2 [KSL, Lys-Lys-Val-Val-Phe-Lys-Val-Lys-Phe-Lys-NH2]
[1]
  stability of KSL during the gum manufacturing process (HPLC of released KSL): remains stable
MRSA WRAMC #12
  MBC: >200 µg/mL
  MIC: >200 µg/mL
MRSA ATCC #43300
  MBC: 200 µg/mL
  MIC: 100 µg/mL
MRSA VVRAMC #10
  MBC: >200 µg/mL
  MIC: >200 µg/mL
MRSA ATCC #33591
  MBC: >200 µg/mL
  MIC: 200 µg/mL
MRSA VVRAMC #1
  MBC: >200 µg/mL
  MIC: >200 µg/mL
MRSA WRAMC #9
  MBC: >200 µg/mL
  MIC: >200 µg/mL
[2]
  viability of biofilm cells by live/dead staining: less impact on the viability of biofilm cells
[3]
  KSL adsorbed to HA discs: approximately 20%
  time to adsorption equilibrium: ≤ 5 min
A. baumannii WRAMC #14
  MBC: 100 µg/mL
